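How tested: cells in 96-well plates exposed to compound for 48 hours at five concentrations. At the GI50, growth is halved. The concentration for full growth arrest is given as TGI.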
What was measured:
Experiment in all cases: inhibition of tumour cell growth, NCI panel, 48 h
[1] = system: ACHN renal
[2] = system: RXF 393 renal
[3] = system: SNB-19 CNS
[4] = system: LOX IMVI melanoma
[5] = system: NCI/ADR-RES ovarian
[6] = system: HT29 colon
[7] = system: HL-60(TB) leukemia
[8] = system: HOP-62 NSCLC
[9] = system: SK-OV-3 ovarian
[10] = system: MALME-3M melanoma

Structure (SMILES)	GI50 [1] [µM]	TGI [1] [µM]	GI50 [2] [µM]	TGI [2] [µM]	GI50 [3] [µM]	TGI [3] [µM]	GI50 [4] [µM]	TGI [4] [µM]	GI50 [5] [µM]	TGI [5] [µM]	GI50 [6] [µM]	TGI [6] [µM]	GI50 [7] [µM]	TGI [7] [µM]	GI50 [8] [µM]	TGI [8] [µM]	GI50 [9] [µM]	TGI [9] [µM]	GI50 [10] [µM]	TGI [10] [µM]
c1cc(OCCN2CCCC2)ccc1CNc1ccc2nc(CCC3CCCCC3)[nH]c2c1	2.29	5.99	1.32	3.23	2.91	10	1.67	3.11	2.76	10.7	0.535	2.23	1.79	3.72	1.71	3.62	2.15	4.5	1.57	3.07
Nc1nc(-c2cccnc2)cc(-c2cc(-c3cccnc3)nc(N)n2)n1		> 100		> 100		> 100		> 100		> 100		> 100		> 100		> 100		> 100		> 100
Nc1nc(Sc2ccc([N+](=O)[O-])c3nonc23)c2ncn(C3OC(CO)C(O)C3O)c2n1 (centres undefined)	0.609	23.8	10.4	> 62.5	> 63.5	> 100	0.221	2.76	0.47	> 73.2	0.846	16.2	3.7	23.5	0.531	> 100	0.651	14.5	9.8	> 42.1
Cc1nnn(C)c1-c1cnc2c3ccc(C(C)(C)O)cc3n([C@H](c3ccccc3)C3CCOCC3)c2c1	0.0243	14.9	1.16	20.4	0.0395	> 100	< 0.01	1.52	0.26	37.8	< 0.01	> 42	< 0.01	48.1	< 0.0227	> 46.9	< 0.01	16.4	0.052	41.3
COC(=O)[C@H](Cc1cn(C)cn1)NC(=O)[C@H](CC(C)C)NC(=O)Nc1cc(C(F)(F)F)cc(C(F)(F)F)c1	> 10	> 10	3.46	> 10	> 10	> 10	4.89	> 10	> 10	> 10	8.05	> 10	> 10	> 10	> 10	> 10	> 10	> 10	> 10	> 10
COc1ccc(Nc2ncc(I)c(NCCCNC(=O)C3CCC3)n2)cc1	3.65	> 100	1.27	6.54	5.26	> 100	1.66	13.6	12	> 100	13.1	71	3.47	14.7	1.64	21.8	4.81	25.5	7.39	> 100
COc1cc(-n2cc(-c3ccc(Cl)cc3)n(-c3ccccc3)c2=O)cc(OC)c1OC	25.8	> 100	24.5	> 100	36.7	> 100	24.3	> 100	21.5	> 100	16.6	> 100	2.82	> 47.6	44.3	> 100	30.8	> 90.7	21.2	75.2
CCn1nc(C2CCN(C(=O)CCO)CC2)nc1-c1cnc(N)c(-c2nnc(C(C)(C)C)o2)n1	3.92	> 100	2.45	20.9	> 100	> 100	3.2	19.8	14.6	> 100	0.63	22	0.263	97.5	5.01	> 100	0.286	2.74	3.77	> 100
CCc1cc2c(c(OCC(F)(F)F)c(C(=O)NC3CCN(C(=O)CO)CC3)n2C)c(=O)n1CC(=O)c1ccccc1	> 64.5	> 100	11.2	42.7	> 100	> 100	> 80	> 100	> 68.4	> 100	65	> 100	59.3	> 100	> 80.9	> 100	> 100	> 100	> 100	> 100
CCCN(CCC)c1ccc(/C=N/NC(=O)c2cccnc2)c(C)c1	24.5	> 100	15.1	30.7	16.1	34.1	13.5	27.6	15.2	51.5	8.54	25.2	13.4	39.5	18.2	43.3	18.1	46.9	13	28.2
ClCc1ccccc1Cn1cnc2nc(Cl)nc(Cl)c21	0.209	0.609		2.94	1.14	2.51	0.137	0.301	1.07	3.96	0.412	> 100	1.35	8.45	2.35	4.4	4.35	15.4	1.68	7.75
COc1ccc(C(=O)/C=C/c2cc(-c3ccc(OC)c(OC)c3)n[nH]2)cc1OC	1.59	3.83	1.45	2.98	1.67	4.16	1.29	2.7	3.43	33.1	1.38	4.95	2.76	> 100	1.73	5.6	3.13	33.3	2.59	6.21

— PubChem BioAssay (NCI)
